# Earlier results, collected in article PMC7914897, “Cytotoxic Potential of a-Azepano- and 3-Amino-3,4-SeCo-Triterpenoids” (International Journal of Molecular Sciences, 2021).
# Key:
# Set-up in all cases: method as in earlier work
# HOP-62 (NSC lung cancer) = conditions: cited from earlier work
# MCF7 (Breast cancer) = conditions: cited from earlier work
# [1] = system: MDA-MB-468 (Breast cancer); conditions: cited from earlier work
# [2] = system: NCI-H23 (NSC lung cancer); conditions: cited from earlier work
# A498 (Renal cancer) = conditions: cited from earlier work
# SK-MEL-5 (Melanoma) = conditions: cited from earlier work
# CNS cancer subpanel = conditions: standard drugs, read-out: GI50 MG_MID; cited from earlier work
# LOX IMVI (Melanoma) = conditions: cited from earlier work
# Leukemia subpanel = conditions: standard drugs, read-out: GI50 MG_MID; cited from earlier work
# HCT-116 (Colon cancer) = conditions: cited from earlier work
# [3] = system: panel of approximately 60 cancer cell lines; conditions: standard drugs; read-out: GI50 MG_MID60; cited from earlier work
# [4] = system: NCI-H522 (NSC lung cancer); conditions: cited from earlier work
# SNB-75 (CNS cancer) = conditions: cited from earlier work
# SN12C (Renal cancer) = conditions: cited from earlier work
# U251 (CNS cancer) = conditions: cited from earlier work
# [5] = system: NCI-H226 (NSC lung cancer); conditions: cited from earlier work
# SNB-19 (CNS cancer) = conditions: cited from earlier work
# MOLT-4 (Leukemia) = conditions: cited from earlier work
# [6] = system: MDA-MB-31/ATCC (Breast cancer); conditions: cited from earlier work
# ACHN (Renal cancer) = conditions: cited from earlier work
# HOP-92 (NSC lung cancer) = conditions: cited from earlier work
# T-47D (Breast cancer) = conditions: cited from earlier work
# SF-268 (CNS cancer) = conditions: cited from earlier work
# SR (Leukemia) = conditions: cited from earlier work
# [7] = system: A549/ATCC (NSC lung cancer); conditions: cited from earlier work
# CCRF-CEM (Leukemia) = conditions: cited from earlier work
# [8] = system: NCI-H460 (NSC lung cancer); conditions: cited from earlier work
# RPMI-8226 (Leukemia) = conditions: cited from earlier work
# SW-620 (Colon cancer) = conditions: cited from earlier work
# RXF 393 (Renal cancer) = conditions: cited from earlier work
# EKVX (NSC lung cancer) = conditions: cited from earlier work
# SF-295 (CNS cancer) = conditions: cited from earlier work
# OVCAR-8 (Ovarian cancer) = conditions: cited from earlier work
# HCC-2998 (Colon cancer) = conditions: cited from earlier work
# SF-539 (CNS cancer) = conditions: cited from earlier work
# MDA-MB-435 (Melanoma) = conditions: cited from earlier work
# OVCAR-3 (Ovarian cancer) = conditions: cited from earlier work
# MALME-3M (Melanoma) = conditions: cited from earlier work
# CAKI-1 (Renal cancer) = conditions: cited from earlier work
structure (smiles),measurement,setting,value
"COc1cccc2c1C(=O)c1c(O)c3c(c(O)c1C2=O)C[C@@](O)(C(=O)CO)C[C@@H]3O[C@H]1C[C@H](N)[C@H](O)[C@H](C)O1 [DRB, doxorubicin]",GI50,HOP-62 (NSC lung cancer),0.07 µM
same,GI50,MCF7 (Breast cancer),0.03 µM
same,GI50,[1],0.05 µM
same,GI50,[2],0.15 µM
same,GI50,A498 (Renal cancer),0.1 µM
same,GI50,SK-MEL-5 (Melanoma),0.08 µM
same,GI50,CNS cancer subpanel,0.08 µM
same,GI50,LOX IMVI (Melanoma),0.07 µM
same,GI50,Leukemia subpanel,0.08 µM
same,GI50,HCT-116 (Colon cancer),0.08 µM
same,GI50,[3],0.38 µM
same,GI50,[4],0.03 µM
same,GI50,SNB-75 (CNS cancer),0.07 µM
same,GI50,SN12C (Renal cancer),0.07 µM
same,GI50,U251 (CNS cancer),0.04 µM
same,GI50,[5],0.05 µM
same,GI50,SNB-19 (CNS cancer),0.04 µM
same,GI50,MOLT-4 (Leukemia),0.03 µM
same,GI50,[6],0.51 µM
same,GI50,ACHN (Renal cancer),0.08 µM
same,GI50,HOP-92 (NSC lung cancer),0.1 µM
same,GI50,T-47D (Breast cancer),0.06 µM
same,GI50,SF-268 (CNS cancer),0.1 µM
same,GI50,SR (Leukemia),0.03 µM
same,GI50,[7],0.06 µM
same,GI50,CCRF-CEM (Leukemia),0.08 µM
same,GI50,[8],0.02 µM
same,GI50,RPMI-8226 (Leukemia),0.08 µM
same,GI50,SW-620 (Colon cancer),0.09 µM
same,GI50,RXF 393 (Renal cancer),0.1 µM
same,GI50,EKVX (NSC lung cancer),0.41 µM
same,GI50,SF-295 (CNS cancer),0.1 µM
same,GI50,OVCAR-8 (Ovarian cancer),0.1 µM
"O=c1[nH]cc(F)c(=O)[nH]1 [Compound 5-FU, 5-fluorouracil]",GI50,HOP-62 (NSC lung cancer),0.39 µM
same,GI50,MCF7 (Breast cancer),0.07 µM
same,GI50,HCC-2998 (Colon cancer),0.05 µM
same,GI50,SF-539 (CNS cancer),0.06 µM
same,GI50,[2],0.33 µM
same,GI50,MDA-MB-435 (Melanoma),0.07 µM
same,GI50,[3],6.97 µM
same,GI50,[4],7.27 µM
same,GI50,SNB-75 (CNS cancer),78.7 µM
same,GI50,OVCAR-3 (Ovarian cancer),0.01 µM
same,GI50,[5],54.7 µM
same,GI50,[6],6.6 µM
same,GI50,HOP-92 (NSC lung cancer),77.9 µM
same,GI50,[8],0.05 µM
same,GI50,MALME-3M (Melanoma),0.05 µM
same,GI50,RPMI-8226 (Leukemia),0.04 µM
same,GI50,CAKI-1 (Renal cancer),0.07 µM
